The subject of test [1] is HEK293. The test can be described thus: cells. The note with it: Homo sapiens.
Test [2] is described as follows: inhibitors of Bluetongue virus cytopathic effect, confirmation, arbovirus, BSR cells (AID 1250).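 Also: protection from viral cytopathic effect measured as cell viability by ATP luminescence.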 Type of test: functional.
The test system of test [3] is HEK293. The test is described as follows: NOD2 signaling inhibitors in MDP-stimulated cells, cell-based, uHTS, luminescence (AID 2001). Type of test: functional. As to conditions: Homo sapiens.
The target of test [4] is Nucleotide-binding oligomerization domain-containing protein 2 (Homo sapiens, UniProt Q9HC29). The test is described as follows: PubChem AID 2334. Type of test: functional.
Nucleotide-binding oligomerization domain-containing protein 2, sequence (Q9HC29 whole entry, the tested form may be a part): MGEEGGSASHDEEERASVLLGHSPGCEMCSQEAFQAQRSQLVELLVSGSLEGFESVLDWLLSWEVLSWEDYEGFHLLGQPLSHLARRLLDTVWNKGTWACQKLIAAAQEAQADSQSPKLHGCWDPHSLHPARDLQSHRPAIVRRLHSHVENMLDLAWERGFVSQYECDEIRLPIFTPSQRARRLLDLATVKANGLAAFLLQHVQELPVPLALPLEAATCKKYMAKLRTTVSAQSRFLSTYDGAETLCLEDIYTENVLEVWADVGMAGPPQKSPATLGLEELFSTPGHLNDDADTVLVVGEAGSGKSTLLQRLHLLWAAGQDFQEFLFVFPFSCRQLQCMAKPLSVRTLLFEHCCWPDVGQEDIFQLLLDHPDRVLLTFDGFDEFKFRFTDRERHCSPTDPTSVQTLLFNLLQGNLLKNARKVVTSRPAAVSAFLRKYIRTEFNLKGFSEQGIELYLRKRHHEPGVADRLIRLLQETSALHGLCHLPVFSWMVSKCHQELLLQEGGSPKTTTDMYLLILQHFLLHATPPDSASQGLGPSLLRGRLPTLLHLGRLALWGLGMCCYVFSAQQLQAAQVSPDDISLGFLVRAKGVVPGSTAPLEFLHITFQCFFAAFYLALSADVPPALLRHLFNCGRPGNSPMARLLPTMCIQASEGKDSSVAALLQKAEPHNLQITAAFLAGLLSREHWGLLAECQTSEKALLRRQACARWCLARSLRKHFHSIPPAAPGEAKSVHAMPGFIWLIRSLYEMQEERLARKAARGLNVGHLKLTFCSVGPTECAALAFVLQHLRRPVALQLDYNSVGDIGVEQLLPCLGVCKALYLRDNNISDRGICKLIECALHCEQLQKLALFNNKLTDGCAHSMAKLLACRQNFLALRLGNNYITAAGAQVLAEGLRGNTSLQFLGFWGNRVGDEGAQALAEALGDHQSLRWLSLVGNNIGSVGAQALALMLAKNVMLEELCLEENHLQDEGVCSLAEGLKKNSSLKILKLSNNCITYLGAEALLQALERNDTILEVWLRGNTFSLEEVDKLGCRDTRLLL
A further test deals with Tumor necrosis factor (Homo sapiens, UniProt P01375). The test can be described thus: TNFa-triggered NF-kB activation inhibitors, SAR follow-up, cell-based, revised (AID 2337). Type of test: functional.
Tumor necrosis factor, sequence (P01375 whole entry): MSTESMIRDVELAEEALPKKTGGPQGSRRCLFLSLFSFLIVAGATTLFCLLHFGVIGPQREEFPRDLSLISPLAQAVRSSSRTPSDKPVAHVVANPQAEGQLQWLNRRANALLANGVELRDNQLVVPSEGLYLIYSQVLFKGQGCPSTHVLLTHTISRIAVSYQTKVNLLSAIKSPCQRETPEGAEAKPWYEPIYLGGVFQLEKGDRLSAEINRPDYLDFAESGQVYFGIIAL
The subject of test [5] is HEK293. The test can be described thus: cells. Format: functional, cell-based. As to conditions: Homo sapiens.
Test [6] concerns the target T1, Nucleotide-binding oligomerization domain-containing protein 1 (Homo sapiens, UniProt Q9Y239).
T1 sequence (Q9Y239 whole entry): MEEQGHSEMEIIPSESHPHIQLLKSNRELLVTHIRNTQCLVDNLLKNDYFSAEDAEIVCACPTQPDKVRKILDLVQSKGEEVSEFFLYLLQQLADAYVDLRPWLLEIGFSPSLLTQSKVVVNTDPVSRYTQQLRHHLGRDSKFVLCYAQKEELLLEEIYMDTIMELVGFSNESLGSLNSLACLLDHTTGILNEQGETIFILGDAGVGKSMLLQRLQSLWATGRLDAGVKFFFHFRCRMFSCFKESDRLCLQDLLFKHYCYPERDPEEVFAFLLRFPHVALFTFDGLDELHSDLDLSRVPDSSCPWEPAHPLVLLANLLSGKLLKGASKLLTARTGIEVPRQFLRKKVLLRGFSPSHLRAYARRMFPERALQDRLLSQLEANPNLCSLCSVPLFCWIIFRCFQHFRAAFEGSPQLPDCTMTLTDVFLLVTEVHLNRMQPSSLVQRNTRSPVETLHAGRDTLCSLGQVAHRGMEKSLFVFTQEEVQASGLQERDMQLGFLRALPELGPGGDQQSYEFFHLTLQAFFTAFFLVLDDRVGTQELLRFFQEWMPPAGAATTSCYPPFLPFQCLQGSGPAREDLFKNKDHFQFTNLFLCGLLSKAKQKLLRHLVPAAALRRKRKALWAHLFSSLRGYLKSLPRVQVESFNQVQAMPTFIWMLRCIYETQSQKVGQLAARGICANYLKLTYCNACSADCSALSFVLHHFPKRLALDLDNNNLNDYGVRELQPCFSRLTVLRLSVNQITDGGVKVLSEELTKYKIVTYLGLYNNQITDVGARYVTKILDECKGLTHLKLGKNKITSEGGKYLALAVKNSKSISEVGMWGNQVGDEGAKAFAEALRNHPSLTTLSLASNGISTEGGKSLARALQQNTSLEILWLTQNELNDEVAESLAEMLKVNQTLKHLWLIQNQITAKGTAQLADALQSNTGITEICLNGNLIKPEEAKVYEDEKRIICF
The test can be described thus: NOD1 signaling inhibitors, SAR follow-up, revised (AID 2333). Type of test: functional.

Test [7] has as its system HEK293. The test can be described thus: NOD1 signaling inhibitors, primary screen, cell-based, luminescence, uHTS (AID 1578). Format: functional. The note with it: Homo sapiens.
In test [8] the test system is HEK293. The test is described as follows: cells. Type of test: functional, cell-based. As to conditions: Homo sapiens. This is another data set of the same source.
The target in test [9] is T2, Sentrin-specific protease 8 (Homo sapiens, UniProt Q96LD8).
T2 sequence (Q96LD8 whole entry): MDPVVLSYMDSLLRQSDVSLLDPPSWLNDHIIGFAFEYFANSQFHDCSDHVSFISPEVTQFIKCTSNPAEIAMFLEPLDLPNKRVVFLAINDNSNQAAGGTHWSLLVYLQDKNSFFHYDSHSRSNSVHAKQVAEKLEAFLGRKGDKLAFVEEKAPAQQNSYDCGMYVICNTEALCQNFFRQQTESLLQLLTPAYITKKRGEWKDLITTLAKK
Type of test: functional.

The target of test [10] is T3, Fibrinogen beta chain (Homo sapiens, UniProt P02675). The test is described as follows: Fluorescence polarization-based biochemical high throughput dose response assay to identify inhibitors that disrupt the binding of a cyclic peptide (Tn7) to the fibrin proteolytic product D-Dimer and fragment E complex [DD(E )].
T3 sequence (P02675 whole entry, the tested form may be a part): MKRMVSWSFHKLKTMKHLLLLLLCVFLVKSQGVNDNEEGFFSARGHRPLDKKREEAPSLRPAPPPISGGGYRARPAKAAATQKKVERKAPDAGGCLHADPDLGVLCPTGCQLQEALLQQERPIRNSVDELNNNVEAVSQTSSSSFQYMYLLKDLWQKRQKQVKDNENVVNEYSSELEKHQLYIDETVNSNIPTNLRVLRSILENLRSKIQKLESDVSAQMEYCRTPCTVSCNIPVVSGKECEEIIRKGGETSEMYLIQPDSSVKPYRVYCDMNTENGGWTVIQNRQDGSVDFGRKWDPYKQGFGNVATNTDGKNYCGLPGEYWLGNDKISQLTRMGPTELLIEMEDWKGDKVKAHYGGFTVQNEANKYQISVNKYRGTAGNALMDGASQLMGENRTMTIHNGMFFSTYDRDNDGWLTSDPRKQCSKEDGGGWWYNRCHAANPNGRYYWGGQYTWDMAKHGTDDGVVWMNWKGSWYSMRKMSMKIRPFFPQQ
A further test concerns HeLa. The test can be described thus: HeLa cell cytotoxicity, dose response, cytotoxicity control, 24 h, cherry-picked samples (AID 504726).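 Also: potency for cytotoxicity as loss of luminescence signal.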 Format: functional, cell-based. The note with it: Homo sapiens.
In a further test the target is 14-3-3 protein gamma (Homo sapiens, UniProt P61981). The test is described as follows: modulators of 14-3-3 gamma client binding – dose response (AID 711). Format: functional.
14-3-3 protein gamma, sequence (P61981 whole entry): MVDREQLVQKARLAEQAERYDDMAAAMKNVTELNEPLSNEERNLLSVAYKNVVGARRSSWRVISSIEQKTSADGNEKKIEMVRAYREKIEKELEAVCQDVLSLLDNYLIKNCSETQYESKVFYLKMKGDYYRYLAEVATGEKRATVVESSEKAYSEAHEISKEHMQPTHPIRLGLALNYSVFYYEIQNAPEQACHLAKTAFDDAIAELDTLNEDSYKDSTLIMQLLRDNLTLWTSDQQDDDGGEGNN
Test [11] addresses Glutathione-S-transferase (Schistosoma japonicum, UniProt Q26513). The test can be described thus: biotin-GST/anti-GST TR-FRET signal inhibitors, dose response, artefact control for Vif-APOBEC3G degradation inhibitor project, biochemical (AID 1117362). Type of test: functional.
Test [12] addresses Histone-lysine N-methyltransferase NSD2 (Homo sapiens, UniProt O96028). Type of test: biochemical.
The target of a further test is T4, Protein RecA (Mycobacterium tuberculosis, UniProt P9WHJ3).
T4 sequence (P9WHJ3 whole entry): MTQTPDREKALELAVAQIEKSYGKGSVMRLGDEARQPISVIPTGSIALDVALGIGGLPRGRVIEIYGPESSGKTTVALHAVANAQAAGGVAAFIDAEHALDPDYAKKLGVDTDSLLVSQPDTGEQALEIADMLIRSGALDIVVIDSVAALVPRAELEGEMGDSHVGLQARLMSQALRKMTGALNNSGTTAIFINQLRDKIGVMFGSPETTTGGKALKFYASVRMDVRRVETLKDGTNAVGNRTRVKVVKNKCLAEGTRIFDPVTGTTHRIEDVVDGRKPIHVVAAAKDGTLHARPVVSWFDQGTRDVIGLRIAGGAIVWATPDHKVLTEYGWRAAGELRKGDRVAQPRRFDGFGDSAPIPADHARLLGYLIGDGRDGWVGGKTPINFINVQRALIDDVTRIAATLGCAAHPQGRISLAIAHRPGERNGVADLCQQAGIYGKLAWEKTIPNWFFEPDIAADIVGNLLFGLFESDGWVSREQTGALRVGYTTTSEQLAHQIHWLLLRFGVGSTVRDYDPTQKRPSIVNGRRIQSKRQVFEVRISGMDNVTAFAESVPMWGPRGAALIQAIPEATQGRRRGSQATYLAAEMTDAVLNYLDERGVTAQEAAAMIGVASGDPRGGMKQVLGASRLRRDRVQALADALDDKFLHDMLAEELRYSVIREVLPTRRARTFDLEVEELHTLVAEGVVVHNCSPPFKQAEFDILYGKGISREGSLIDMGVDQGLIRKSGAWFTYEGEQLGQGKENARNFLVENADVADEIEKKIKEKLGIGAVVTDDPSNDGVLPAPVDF
The test can be described thus: Fluorescence Cell-Free Homogeneous Dose Retest to Identify Inhibitors of RecA-Intein Splicing Activity. [Related pubchem assays (depositor defined):AID2097, AID2223, AID489010, AID492950]. Format: functional.

Test [13] addresses T5, Tyrosyl-DNA phosphodiesterase 2 (Homo sapiens, UniProt O95551).
T5 sequence (O95551 whole entry): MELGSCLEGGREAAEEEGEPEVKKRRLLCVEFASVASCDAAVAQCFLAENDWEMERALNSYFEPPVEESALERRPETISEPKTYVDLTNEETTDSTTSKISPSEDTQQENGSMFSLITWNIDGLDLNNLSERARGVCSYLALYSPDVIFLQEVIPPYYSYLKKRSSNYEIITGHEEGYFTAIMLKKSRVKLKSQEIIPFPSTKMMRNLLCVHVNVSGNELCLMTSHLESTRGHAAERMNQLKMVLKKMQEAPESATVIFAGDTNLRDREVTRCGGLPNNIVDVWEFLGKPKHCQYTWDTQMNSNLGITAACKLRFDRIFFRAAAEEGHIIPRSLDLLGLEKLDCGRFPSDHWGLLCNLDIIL
The test can be described thus: human TDP2 enzyme inhibitors, dose response, biochemical, epi absorbance, IC50 (AID 743297).

The target of test [14] is T2, Sentrin-specific protease 8. Format: functional. This is another data set of the same source.
In test [15] the target is T6, Replicative DNA helicase DnaB (Mycobacterium tuberculosis, UniProt P9WMR3).
T6 sequence (P9WMR3 whole entry): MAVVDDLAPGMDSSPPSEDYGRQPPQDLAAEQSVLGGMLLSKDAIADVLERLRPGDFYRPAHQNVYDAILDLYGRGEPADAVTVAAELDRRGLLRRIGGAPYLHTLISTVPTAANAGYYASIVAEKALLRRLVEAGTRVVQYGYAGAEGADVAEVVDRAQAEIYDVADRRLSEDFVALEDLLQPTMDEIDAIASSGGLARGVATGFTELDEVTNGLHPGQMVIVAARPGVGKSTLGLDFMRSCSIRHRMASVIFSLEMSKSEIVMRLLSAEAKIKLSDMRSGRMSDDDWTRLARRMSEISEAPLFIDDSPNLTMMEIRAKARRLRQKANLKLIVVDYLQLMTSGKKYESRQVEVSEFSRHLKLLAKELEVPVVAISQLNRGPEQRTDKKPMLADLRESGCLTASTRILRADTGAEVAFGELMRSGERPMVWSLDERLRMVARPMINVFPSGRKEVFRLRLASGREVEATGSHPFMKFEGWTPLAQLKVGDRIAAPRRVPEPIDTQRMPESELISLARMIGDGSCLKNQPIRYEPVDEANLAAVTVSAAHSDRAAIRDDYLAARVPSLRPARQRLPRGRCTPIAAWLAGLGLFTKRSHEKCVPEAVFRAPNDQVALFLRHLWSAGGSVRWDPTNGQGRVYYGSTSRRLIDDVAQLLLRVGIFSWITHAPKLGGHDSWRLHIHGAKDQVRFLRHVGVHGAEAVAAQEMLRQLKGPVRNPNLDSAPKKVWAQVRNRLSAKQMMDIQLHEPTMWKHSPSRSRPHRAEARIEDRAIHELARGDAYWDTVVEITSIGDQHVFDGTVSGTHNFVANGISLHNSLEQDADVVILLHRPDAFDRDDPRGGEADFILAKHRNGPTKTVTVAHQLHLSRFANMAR
The test can be described thus: DnaB intein splicing inhibitors, dose response, biochemical, cell-free fluorescence (AID 449749). Type of test: functional.

For test [16], the target named is T3, Fibrinogen beta chain. The test can be described thus: Fluorescence polarization-based biochemical high throughput dose response assay to identify inhibitors that disrupt the binding of a cyclic peptide (Tn6) to the fibrin proteolytic product D-Dimer and fragment E complex [DD(E )].
The target of another test is X-box-binding protein 1 (Homo sapiens, UniProt P17861). Type of test: functional, Cricetulus griseus.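 Also: confirmatory dose-response counter-screen serving a CHOP assay.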
X-box-binding protein 1, sequence (P17861 whole entry): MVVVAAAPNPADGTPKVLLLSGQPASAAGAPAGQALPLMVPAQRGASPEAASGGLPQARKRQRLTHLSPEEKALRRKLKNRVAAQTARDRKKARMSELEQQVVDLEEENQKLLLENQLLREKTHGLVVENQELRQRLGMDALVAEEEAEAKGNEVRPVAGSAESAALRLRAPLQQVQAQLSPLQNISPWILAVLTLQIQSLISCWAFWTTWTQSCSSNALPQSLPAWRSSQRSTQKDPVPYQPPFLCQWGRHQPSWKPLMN
A short description of test [17]: THP-1 cell cytotoxicity, dose response, cytotoxicity control for Vif-APOBEC3G degradation inhibitor project, THP-1 cells (AID 1117359). Format: functional. As to conditions: Human immunodeficiency virus 1, THP-1.
The target of another test is Hexokinase HKDC1 (Homo sapiens, UniProt Q2TB90). The test is described as follows: HKDC1 hexokinase inhibitors, dose response, biochemical, W721R variant (AID 504729). Format: functional.
Hexokinase HKDC1, sequence (Q2TB90 whole entry): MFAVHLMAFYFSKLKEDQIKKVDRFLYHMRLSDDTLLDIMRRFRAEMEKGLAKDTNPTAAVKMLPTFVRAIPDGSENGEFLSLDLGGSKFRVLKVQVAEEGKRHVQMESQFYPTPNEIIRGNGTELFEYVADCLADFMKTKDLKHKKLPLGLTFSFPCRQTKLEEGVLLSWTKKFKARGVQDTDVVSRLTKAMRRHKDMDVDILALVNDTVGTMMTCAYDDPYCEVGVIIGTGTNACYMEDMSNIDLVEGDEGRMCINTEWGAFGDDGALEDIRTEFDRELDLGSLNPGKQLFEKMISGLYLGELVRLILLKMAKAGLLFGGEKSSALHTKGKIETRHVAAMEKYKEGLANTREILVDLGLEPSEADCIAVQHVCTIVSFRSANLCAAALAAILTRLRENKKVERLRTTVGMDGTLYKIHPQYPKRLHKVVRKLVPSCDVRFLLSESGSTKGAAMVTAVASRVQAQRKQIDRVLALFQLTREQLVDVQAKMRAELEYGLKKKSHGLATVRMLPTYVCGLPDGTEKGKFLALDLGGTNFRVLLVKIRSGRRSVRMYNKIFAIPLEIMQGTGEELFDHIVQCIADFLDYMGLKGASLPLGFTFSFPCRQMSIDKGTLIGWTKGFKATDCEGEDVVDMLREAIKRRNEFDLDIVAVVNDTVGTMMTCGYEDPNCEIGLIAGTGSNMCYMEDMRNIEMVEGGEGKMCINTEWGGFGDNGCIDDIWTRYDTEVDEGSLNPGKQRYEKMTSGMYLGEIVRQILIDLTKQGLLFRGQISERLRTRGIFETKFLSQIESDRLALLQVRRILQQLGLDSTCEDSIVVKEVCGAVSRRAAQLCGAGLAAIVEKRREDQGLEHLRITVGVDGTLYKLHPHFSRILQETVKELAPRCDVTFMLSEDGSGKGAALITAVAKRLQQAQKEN
The target of a further test is Beta-galactosidase (Escherichia coli, UniProt Q8VNN2). The test is described as follows: beta-galactosidase enzyme inhibitors and activators, dose response, artefact control for CCR6 antagonist project, biochemical, E. coli enzyme, set 3 (AID 504712). Type of test: functional.
Beta-galactosidase, sequence (Q8VNN2 whole entry): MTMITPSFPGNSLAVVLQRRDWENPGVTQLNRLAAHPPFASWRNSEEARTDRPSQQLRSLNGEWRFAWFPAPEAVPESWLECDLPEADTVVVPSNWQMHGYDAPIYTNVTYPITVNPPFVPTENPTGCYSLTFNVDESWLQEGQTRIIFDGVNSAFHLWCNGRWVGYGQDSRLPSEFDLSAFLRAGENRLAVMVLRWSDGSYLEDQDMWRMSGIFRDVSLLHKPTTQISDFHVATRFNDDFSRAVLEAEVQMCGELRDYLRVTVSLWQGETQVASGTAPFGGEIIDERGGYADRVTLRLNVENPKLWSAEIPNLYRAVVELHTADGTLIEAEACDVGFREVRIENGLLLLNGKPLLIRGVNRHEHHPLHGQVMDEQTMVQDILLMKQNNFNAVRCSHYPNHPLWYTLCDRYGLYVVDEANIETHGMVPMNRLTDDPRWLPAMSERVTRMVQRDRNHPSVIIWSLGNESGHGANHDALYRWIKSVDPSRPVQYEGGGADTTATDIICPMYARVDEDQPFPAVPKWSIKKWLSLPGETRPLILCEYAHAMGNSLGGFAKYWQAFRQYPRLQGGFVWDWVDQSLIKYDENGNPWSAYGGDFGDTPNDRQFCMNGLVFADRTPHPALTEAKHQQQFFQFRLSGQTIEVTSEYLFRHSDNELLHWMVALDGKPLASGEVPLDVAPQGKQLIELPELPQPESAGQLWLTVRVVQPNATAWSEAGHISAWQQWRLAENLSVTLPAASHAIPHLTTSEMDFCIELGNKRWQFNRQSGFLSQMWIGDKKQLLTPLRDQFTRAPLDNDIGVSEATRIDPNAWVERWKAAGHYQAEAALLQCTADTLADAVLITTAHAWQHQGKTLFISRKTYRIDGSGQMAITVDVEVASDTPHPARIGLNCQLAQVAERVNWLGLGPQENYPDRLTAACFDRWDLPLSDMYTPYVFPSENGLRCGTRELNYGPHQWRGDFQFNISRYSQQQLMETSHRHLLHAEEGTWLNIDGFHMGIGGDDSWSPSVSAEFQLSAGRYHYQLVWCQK
The target in test [18] is C-C chemokine receptor type 6 (Homo sapiens, UniProt P51684). The test can be described thus: CCR6 receptor antagonists, dose response, cell-based, luminescent beta-arrestin readout (AID 504728). Type of test: functional.
C-C chemokine receptor type 6, sequence (P51684 whole entry): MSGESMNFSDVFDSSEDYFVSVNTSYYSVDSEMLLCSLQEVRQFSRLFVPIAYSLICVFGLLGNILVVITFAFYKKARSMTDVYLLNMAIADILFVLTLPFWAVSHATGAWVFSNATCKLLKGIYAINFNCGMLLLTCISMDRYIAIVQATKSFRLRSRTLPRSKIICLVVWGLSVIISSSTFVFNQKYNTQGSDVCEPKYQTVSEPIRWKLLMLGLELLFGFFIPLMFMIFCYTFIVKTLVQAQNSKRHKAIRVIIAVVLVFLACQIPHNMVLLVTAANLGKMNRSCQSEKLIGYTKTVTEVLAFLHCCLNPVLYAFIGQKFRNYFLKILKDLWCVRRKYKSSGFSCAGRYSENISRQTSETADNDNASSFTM
The target in test [19] is Dual specificity protein phosphatase 3 (Homo sapiens, UniProt P51452). The test can be described thus: VHR1 inhibitor Ki determination, SAR follow-up, biochemical, colorimetric (AID 2004).
Dual specificity protein phosphatase 3, sequence (P51452 whole entry): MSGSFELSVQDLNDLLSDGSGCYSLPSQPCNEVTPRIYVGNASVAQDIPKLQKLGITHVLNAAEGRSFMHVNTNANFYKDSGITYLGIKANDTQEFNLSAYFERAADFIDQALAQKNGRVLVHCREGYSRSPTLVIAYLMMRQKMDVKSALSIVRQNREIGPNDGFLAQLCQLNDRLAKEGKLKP

Molecules are shown by their SMILES. Calls of active or inactive are those of the source.

Glutathione-S-transferase, sequence (Q26513 whole entry): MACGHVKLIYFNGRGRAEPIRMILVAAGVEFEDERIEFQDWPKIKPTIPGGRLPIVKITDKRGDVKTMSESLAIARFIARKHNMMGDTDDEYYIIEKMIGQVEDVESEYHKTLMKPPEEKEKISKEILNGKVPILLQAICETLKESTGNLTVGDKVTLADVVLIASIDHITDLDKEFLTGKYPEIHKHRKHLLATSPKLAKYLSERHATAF

A word on the IC50: it is the concentration needed to halve the response being measured. By EC50 is commonly meant the concentration giving half of the maximal effect. For the molecule `CS(=O)(=O)c1ccc2nc(NC(=O)c3cccc(NS(=O)(=O)c4ccc(F)c(F)c4)c3)sc2c1`, the IC50 in the test with HEK293 [1] was > 20 µM (inactive); in test [2], 23.7 µM (active); in the test on HEK293 [3], > 20 µM (inactive); in test [4] it was 18.4 µM (active); at Tumor necrosis factor, 16.9 µM (active); in the test on HEK293 [5], > 20 µM (inactive). The IC50 in [6] is 3.16 µM (active); in the test with HEK293 [8] it was > 20 µM (inactive). The concentration giving a half-maximal response (EC50) in the test with HEK293 [7] is 5.5 µM (active).
One may read the AC50 as the midpoint of the concentration-response curve, whichever way the signal moves. For the molecule `Cc1cc2c(N)cccc2nn1`, the 50% inhibitory concentration (IC50) was 2.14 µM (active) in [9]; > 83.3 µM (inactive) on Fibrinogen beta chain [10]; > 50 µM (not active) at 14-3-3 protein gamma; 52.6 µM (active) in [11]; 27.2 µM (inactive) in test [13]; 6 µM (active) in test [14]. At Fibrinogen beta chain [16], the IC50 was > 83.3 µM (inactive). The results for the AC50 (in the test with HeLa; in [12]; in test [15]) were > 350 µM (inactive), 4.77 µM (active) and > 380 µM (inactive), respectively. Besides, at Protein RecA, the EC50 was 54.6 µM (active).
Regarding `CC(C)Cc1ccc(C(C)C(=O)Nc2nccs2)cc1` (configuration not stated), at X-box-binding protein 1, the “Absolute IC50 (XBP1)” value worked out at 10 µM.
In general, CC50 refers to the concentration at which the toxic effect on the cells reaches its halfway point. In the case of `O=C1C(CO)=C(CO)C(=O)c2c(O)ccc(O)c21`, in [17], the CC50 is 25.3 µM (active). The concentration for half-maximal inhibition (IC50) is > 100 µM (active) in test [11] and 15.2 µM (active) at Hexokinase HKDC1.
With `CCN1CCC(O)(/C=C/c2ccc(C)cc2)C(C(=O)/C=C/c2ccc(C)cc2)C1` (configuration not stated), the IC50 on Beta-galactosidase is > 66.6 µM (inactive); in [18] it was 22.8 µM (inactive).
For orientation: Ki means the equilibrium dissociation constant of an inhibitor or competing ligand from its target. Consider `O=C1/C(=C\c2ccc(-c3cccc(Cl)c3)o2)SC(=S)N1CCS(=O)(=O)O`, for which the Ki in test [19] is 3.13 µM (active).

These data come from ChEMBL document CHEMBL1201862, “PubChem BioAssay data set” (2004).
